Values quoted from earlier work as cited in US20090198080A1, “METHOD FOR THE PREPARATION OF ARYL ETHERS” (Pfizer Inc, priority 2004, published 2009).

Tests used:
8-OH-DPAT hypothermia = conditions: in vivo
[1] = different animal models

In the case of `CCOc1ccccc1O[C@@H](c1ccccc1)[C@@H]1CNCCO1` (racemic) [reboxetine, 2-[α-(2-ethoxyphenoxy)benzyl]morpholine], the “effect in the 8-OH-DPAT hypothermia test” value (8-OH-DPAT hypothermia) is listed as “ineffective”, the “norepinephrine reuptake inhibitory activity” value (norepinephrine reuptake) is listed as “selective norepinephrine reuptake inhibitor” and the “serotonin reuptake inhibitory activity” value (serotonin reuptake) is listed as “only marginal”. The “dopamine reuptake inhibitory activity” value (dopamine reuptake) was “no dopamine reuptake inhibitory activity”, the anticholinergic binding activity [1] was “no anticholinergic binding activity” and the “monoamine oxidase (MAO) inhibitory activity” value (monoamine oxidase (MAO)) was “substantially devoid”.
